This note sets out measurements from ChEMBL document CHEMBL1128785, “Modifications of the MeBmt side chain of cyclosporin A” (Bioorg Med Chem Lett, 1995).

What all share (type): functional
The nature of test [1]: Tested in vitro for mixed Lymphocyte reaction; 2-3 times less active than compound 1.
Test [2] concerns the target T1, Interleukin-2 (Mus musculus) (UniProt P04351).
T1 sequence (whole entry): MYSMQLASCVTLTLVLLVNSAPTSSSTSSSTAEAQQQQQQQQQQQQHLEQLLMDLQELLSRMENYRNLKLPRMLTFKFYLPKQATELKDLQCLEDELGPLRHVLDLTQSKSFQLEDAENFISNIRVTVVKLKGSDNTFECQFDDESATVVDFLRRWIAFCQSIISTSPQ
Kind of test: Tested in vitro for inhibition of Interleukin-2 (IL-2) release; 2-3 times less active than compound 1.

Test [3] in a line: Tested in vitro for mixed Lymphocyte reaction; 100 times less active than cyclosporin A.
In test [4] the target is T1, Interleukin-2 (Mus musculus). Kind of test: Tested in vitro for inhibition of Interleukin-2 (IL-2) release; 100 times less active than cyclosporin A.

Turning to `CC[C@@H]1NC(=O)[C@H]([C@H](O)[C@H](C)C[C@@H]2C[C@H]2C)N(C)C(=O)[C@H](C(C)C)N(C)C(=O)[C@H](CC(C)C)N(C)C(=O)[C@H](CC(C)C)N(C)C(=O)[C@@H](C)NC(=O)[C@H](C)NC(=O)[C@H](CC(C)C)N(C)C(=O)[C@H](C(C)C)NC(=O)[C@H](CC(C)C)N(C)C(=O)CN(C)C1=O`, the Activity in test [1] and in test [2] was 2-3 times less active than compound 1 in each case.

In the case of `CC[C@@H]1NC(=O)[C@H]([C@@H]2OC(C(C)=O)C[C@H]2C)N(C)C(=O)[C@H](C(C)C)N(C)C(=O)[C@H](CC(C)C)N(C)C(=O)[C@H](CC(C)C)N(C)C(=O)[C@@H](C)NC(=O)[C@H](C)NC(=O)[C@H](CC(C)C)N(C)C(=O)[C@H](C(C)C)NC(=O)[C@H](CC(C)C)N(C)C(=O)CN(C)C1=O` (stereo not given in full), the Activity in test [3] and in test [4] was 100 times less active than cyclosporin A throughout.

As to `CC[C@@H]1NC(=O)[C@H]([C@H](O[Si](C)(C)C(C)(C)C)[C@H](C)C[C@H]2OC23CC3)N(C)C(=O)[C@H](C(C)C)N(C)C(=O)[C@H](CC(C)C)N(C)C(=O)[C@H](CC(C)C)N(C)C(=O)[C@@H](C)NC(=O)[C@H](C)NC(=O)[C@H](CC(C)C)N(C)C(=O)[C@H](C(C)C)NC(=O)[C@H](CC(C)C)N(C)C(=O)CN(C)C1=O`, the Activity in test [3] and in test [4] was 100 times less active than cyclosporin A throughout.

Turning to `CC=C=CC[C@@H](C)[C@@H](O)[C@H]1C(=O)N[C@@H](CC)C(=O)N(C)CC(=O)N(C)[C@@H](CC(C)C)C(=O)N[C@@H](C(C)C)C(=O)N(C)[C@@H](CC(C)C)C(=O)N[C@@H](C)C(=O)N[C@H](C)C(=O)N(C)[C@@H](CC(C)C)C(=O)N(C)[C@@H](CC(C)C)C(=O)N(C)[C@@H](C(C)C)C(=O)N1C`, the Activity in test [1] and in test [2] was 2-3 times less active than compound 1 throughout.

As to `CC[C@@H]1NC(=O)[C@H]([C@@H]2O[C@]3(O)CC[C@@H]3C[C@H]2C)N(C)C(=O)[C@H](C(C)C)N(C)C(=O)[C@H](CC(C)C)N(C)C(=O)[C@H](CC(C)C)N(C)C(=O)[C@@H](C)NC(=O)[C@H](C)NC(=O)[C@H](CC(C)C)N(C)C(=O)[C@H](C(C)C)NC(=O)[C@H](CC(C)C)N(C)C(=O)CN(C)C1=O`, the Activity in test [3] and in test [4] was 100 times less active than cyclosporin A each time.
